Experimental data as given in patent US20080267936A1, “Treatment of trauma-hemorrhage with short oligopeptides” (Biotempt B.V., priority 2007, published 2008).

Assays:
TNF-α [1] = assay: Hemorrhagic shock model, Example 2: TNF-α mRNA transcripts in tissue by RQ-PCR; type: in vivo, Wistar rats; details: 180 minutes after onset of shock, 10 mg/kg, normalized against GAPDH
Experimental: (§1) Experimental procedures: After an acclimatization period of 15 minutes, the rats were randomized into five different groups: 1) sham, 2) hemorrhagic shock (HS), 3) hemorrhagic shock with LQGV (SEQ ID NO:2) treatment (HS/LQGV (SEQ ID NO:2)), 4) hemorrhagic shock with AQGV treatment (HS/AQGV (SEQ ID NO:1)) and 5) hemorrhagic shock with LAGV (SEQ ID NO:3) treatment (HS/LAGV (SEQ ID NO:3). Hemorrhagic shock was induced by blood withdrawal, reducing the circulating blood volume until a mean arterial pressure (MAP) of […] mmHg was reached. This level of hypotension was maintained for 60 minutes. After 30 minutes, rats received either a single bolus injection of 10 mg/kg LQGV (SEQ ID NO:2), AQGV (SEQ ID NO:1), LAGV (SEQ ID NO:3), or 0.9% NaCl solution. The peptides and dosage were based on previous studies, in which we performed dose-escalation experiments (manuscript in preparation). Sixty minutes after induction of hemorrhagic shock, rats were resuscitated by autologous blood transfusion over a period of 30 minutes and monitored for another 120 minutes, after which they were sacrificed (FIG. 7, Panel A). Sham animals underwent the same surgical procedure as the hemorrhagic shock animals, but without performing hemorrhage and administration of peptides.
(§2) Tissue collection and storage: Liver, lungs, ileum and sigmoid were surgically removed at the end of the experiment, snap-frozen, and stored at −80° C., until assayed.
(§3) Evaluation of mRNA levels by real-time quantitative (RQ)-PCR: RNA was isolated using a QIAGEN kit (QIAGEN, Hilden, Germany), according to the manufacturer's instructions. TNF-α, IL-6 and ICAM-1 transcripts were determined by RQ-PCR using an Applied Biosystems 7700 PCR machine (Foster City, Calif., USA) as described previously.^[27] TNF-α, IL-6 and ICAM-1 expression was quantified by normalization against GAPDH.
(§4) Statistical analysis: Statistical analysis was performed using SPSS version 11 software (SPSS Inc., Chicago, Ill.). Inter-group differences were analyzed with Kruskal-Wallis statistical test.

IL-6 [2] = assay: Hemorrhagic shock model, Example 2: IL-6 plasma levels by ELISA; type: in vivo, Wistar rats; details: 10 mg/kg single dose; 120, 150 and 180 minutes after onset of shock
Experimental: (§5) Adult male specific pathogen-free Wistar rats (Harlan CPB, Zeist, The Netherlands), weighing 350 to 400 g were used. Animals were housed under barrier conditions at 25° C. with a twelve-hour light/dark cycle, and were allowed food and water ad libitum. The experimental protocol was approved by the Animal Experiment Committee under the Dutch Experiments on Animals Act and adhered to the rules laid down in this national law that serves the implementation of “Guidelines on the protection of experimental animals” by the Council of Europe (1986), Directive 86/609/EC.
(§6) Synthetic oligopeptides: The oligopeptides (LQGV (SEQ ID NO:2), AQGV (SEQ ID NO:1), and LAGV (SEQ ID NO:3)) were synthesized by Ansynth Service B.V. (Roosendaal, The Netherlands) and dissolved in 0.9% NaCl at a concentration of 10 mg/ml.
Surgical procedures: Rats were food deprived overnight before the experiment, but were allowed water ad libitum. Rats were anesthetized using a mixture of N2O/O2 isoflurane (Pharmachemie B.V., Haarlem, The Netherlands). […]
Experimental procedures: After an acclimatization period of 15 minutes, the rats were randomized into five different groups: 1) sham, 2) hemorrhagic shock (HS), 3) hemorrhagic shock with LQGV (SEQ ID NO:2) treatment (HS/LQGV (SEQ ID NO:2)), 4) hemorrhagic shock with AQGV treatment (HS/AQGV (SEQ ID NO:1)) and 5) hemorrhagic shock with LAGV (SEQ ID NO:3) treatment (HS/LAGV (SEQ ID NO:3). […] Sixty minutes after induction of hemorrhagic shock, rats were resuscitated by autologous blood transfusion over a period of 30 minutes and monitored for another 120 minutes, after which they were sacrificed (FIG. 7, Panel A). […]
Plasma collection and storage: Arterial blood was obtained 15 minutes before and 30, 60, 90, 120, 150 and 180 minutes after onset of hemorrhage (FIG. 7, Panel A). After blood withdrawal, leukocyte numbers were determined using a coulter counter (Beckman Coulter, Mijdrecht, The Netherlands) and corrected for the hematocrit. […]

IL-6 [3] = assay: Hemorrhagic shock model, Example 2: IL-6 mRNA transcripts in tissue by RQ-PCR; type: in vivo, Wistar rats; details: 180 minutes after onset of shock, 10 mg/kg, normalized against GAPDH
Experimental: as §1, §2, §3, §4

TNF-α [4] = assay: Hemorrhagic shock model, Example 2: TNF-α plasma levels by ELISA; type: in vivo, Wistar rats; details: for increase in plasma TNF-α levels during the experiment: 10 mg/kg single bolus 30 minutes after onset of shock, up to 180 minutes; for TNF-α plasma levels: 10 mg/kg single dose after induction of hemorrhagic shock, vs non-treated HS
Experimental: as §5, §6
Surgical procedures: Rats were food deprived overnight before the experiment, but were allowed water ad libitum. Rats were anesthetized using a mixture of N2O/O2 isoflurane (Pharmachemie B.V., Haarlem, The Netherlands). Body temperature was continuously maintained at 37.5° C. by placing the rats on a thermo controlled “half-pipe” (UNO, Rotterdam, The Netherlands). Endotracheal intubation was performed, and rats were ventilated at 60 breaths per minute with a mixture of N2O/O2 2% isoflurane. Polyethylene tubes (PE-50, Becton Dickinson; St. Michielsgestel, The Netherlands) were flushed with heparin and placed via the right carotid artery in the aorta and in the right internal jugular vein. The rats received no heparin before or during the experiment.
as §1
Plasma collection and storage: Arterial blood was obtained 15 minutes before and 30, 60, 90, 120, 150 and 180 minutes after onset of hemorrhage (FIG. 7, Panel A). After blood withdrawal, leukocyte numbers were determined using a coulter counter (Beckman Coulter, Mijdrecht, The Netherlands) and corrected for the hematocrit. Approximately 0.3 ml of blood was placed into mini collect tubes (Greiner, Bio-one, Alphen a/d Rijn, The Netherlands), plasma was obtained by centrifugation (1500 r.p.m.; five minutes), immediately frozen, and stored at −80° C., until assayed.
Measurement of cytokines: TNF-α and IL-6 plasma levels were determined by ELISA (R&D Systems Europe Ltd., Abingdon, UK), according to the manufacturer's instructions.
as §4

hemorrhagic shock = assay: Hemorrhagic shock model, Example 1 (bled to MAP 40 mmHg, 0.9% NaCl resuscitation): blood cells, hematocrit, hepatic blood flow; type: in vivo, Wistar rats; details: for leukocyte concentration, peptide-treated vs non-treated animals: 5 mg/kg i.v. 30 minutes after induction of shock; for leukocytes, minimum during trauma-hemorrhage: 100% at T0, 5 mg/kg i.v. single bolus 30 minutes after induction of shock; for concentrations of circulating macrophages and granulocytes compared to the non-treated animals: 120 minutes after the onset of hemorrhagic shock, single dose; for blood levels of circulating macrophages and granulocytes / concentrations of circulating macrophages and granulocytes compared with the corresponding experimental group / decrease of circulating macrophages and granulocytes compared with concentrations after trauma-hemorrhage: 180 minutes after onset of trauma-hemorrhage; for arterial hepatic blood flow during the shock period: control group 102.6±23.5%
Experimental: Adult male specific pathogen-free Wistar rats (Harlan CPB, Zeist, The Netherlands), weighing 350 to 400 g were used after a minimum seven-day acclimation period. The animals were housed under barrier conditions and kept at 25° C. with a twelve-hour light/dark cycle. Rats were allowed free access to water and chow (−). All procedures were performed in accordance with the Principles of Laboratory Animal Care (NIH publication No. 86-23, revised 1985) under a protocol approved by the Committee on Animal Research of the Erasmus University (protocol EUR 365).
The rats were fasted overnight but were allowed free access to water before the experiment. Subsequent to endotracheal intubation, the rats were mechanically ventilated with an isoflurane (−) N2O/O2 mixture at 60 breaths/minute. Body temperature was continuously maintained at 37.5° C. by placing the animals on a thermo controlled “half-pipe” (UNO, The Netherlands). Polyethylene tubes (PE-50, Becton Dickinson; St. Michielsgestel, The Netherlands) were flushed with heparin and placed via the right carotid artery in the aorta and in the right internal jugular vein. The animals received no heparin before or during the experiment.
Mean arterial pressures (MAP) was measured using transducers (Becton Dickinson) that were connected in line to an electronic recorder (Hewlett Packard, 78354-A Germany) for electronically calculated mean pressures and continuous measurement of the animal's blood pressure. Under semi-sterile conditions, a median laparotomy was performed and ultrasonic perivascular flow probes (Transonic Systems Inc, Maastricht, The Netherlands) were placed on the common hepatic artery and the portal vein. A supra pubic catheter was placed to monitor the urine production during and after resuscitation.
After an acclimatization period of 20 minutes, the rats were randomized into the following five groups: • Hemorrhagic shock group were bled within ten minutes to a mean arterial pressure (MAP) of 40 mmHg and maintained at this level for 60 minutes by withdrawing or re-infusing shed blood as needed. Thereafter, the animals were resuscitated with plus minus four times the volume of the withdrawn blood over 30 minutes with a 0.9% NaCl solution. • The hemorrhagic shock group+peptide A (LAGV (SEQ ID NO:3); one-letter amino acid code) underwent the same procedure as the hemorrhagic shock group but received a single bolus injection of 5 mg/kg peptide A intravenously 30 minutes after the induction of shock. • The hemorrhagic shock group+peptide B (AQGV (SEQ ID NO:1)) underwent the same procedure as the hemorrhagic shock group and received a single bolus injection of 5 mg/kg peptide B intravenously, 30 minutes after the induction of shock. • The hemorrhagic shock group+peptide C (LQGV (SEQ ID NO:2)) underwent the same procedure as the hemorrhagic shock group and received a single bolus injection of 5 mg/kg peptide C intravenously, 30 minutes after the induction of shock. • Sham group underwent the same procedure as the hemorrhagic shock group without performing the hemorrhage or administration of any kind of peptides.
The hepatic arterial blood flow (QHA) and hepatic portal venous blood flow (QVP) were measured with transit time ultrasonic perivascular flow probes, connected to an ultrasonic meter (T201; Transonic Systems, Inc., Maastricht, NL). Systemic and hepatic hemodynamics were continuously measured. At regular time points, arterial blood samples were taken. The animals were euthanized by withdrawal of arterial blood via the carotid artery.
Plasma collection and storage: Whole arterial blood was obtained at −15, 30, 60, 90, 120, 150 and 180 minutes after induction of shock via the right carotid artery and collected in duplo. 0.2 ml was placed in tubes (Eppendorf EDTA KE/1.3) to be assayed in the coulter counter (−). 0.5 ml was placed in Minicollect tubes (Bio-one, Greiner) centrifuged for five minutes, immediately frozen, and stored at −80° C., until assayed. […]

ICAM-1 = assay: Hemorrhagic shock model, Example 2: ICAM-1 mRNA transcripts in tissue by RQ-PCR; type: in vivo, Wistar rats; details: 180 minutes after onset of shock, 10 mg/kg, normalized against GAPDH
Experimental: as §1, §2, §3, §4

[5] = test system: pro-inflammatory cytokines; details: 150 mg/kg; cited from earlier work

AQGV [synthetic tetrapeptide, alanine replacement variant of LQGV from loop two of the β-subunit of hCG]
TNF-α transcripts in the liver compared to non-treated HS (TNF-α [1]): reduction | IL-6 plasma levels compared to the non-treated hemorrhagic shock group (IL-6 [2]): significant reduction | IL-6 mRNA transcripts in the liver compared to the HS group (IL-6 [3]): significant reduction | increase in plasma TNF-α levels during the experiment (TNF-α [4]): none | TNF-α plasma levels (TNF-α [4]): significant reduction | leukocyte concentration, peptide-treated vs non-treated animals (hemorrhagic shock): No significant difference | leukocytes, minimum during trauma-hemorrhage (hemorrhagic shock): 47.3±12.4% | concentrations of circulating macrophages and granulocytes compared to the non-treated animals (hemorrhagic shock): decreased | blood levels of circulating macrophages and granulocytes (hemorrhagic shock; 5 mg/kg i.v.): 4,432±0.736 10^9/1 | concentrations of circulating macrophages and granulocytes compared with the corresponding experimental group (hemorrhagic shock; 5 mg/kg i.v.): significantly lower | decrease of circulating macrophages and granulocytes compared with concentrations after trauma-hemorrhage (hemorrhagic shock; 5 mg/kg i.v.): 29.9% | blood flow in the hepatic artery during the reperfusion (hemorrhagic shock; reperfusion, 5 mg/kg i.v., shock group 128.9±75.4%, control 83.7±24.2%): 78.4±28.3% | arterial hepatic blood flow during the shock period (hemorrhagic shock; 5 mg/kg i.v.): 18.1±9.0% | ICAM-1 transcript levels in the liver (ICAM-1): did not affect

Alanine-glutamine dipeptide [AG]
mRNA expression of pro-inflammatory cytokines in the liver after hemorrhagic shock [5]: inhibited

LAGV [synthetic tetrapeptide, alanine replacement variant of LQGV from loop two of the β-subunit of hCG]
TNF-α transcripts in the liver compared to non-treated HS (TNF-α [1]): reduction | IL-6 plasma levels compared to the non-treated hemorrhagic shock group (IL-6 [2]): significant reduction | IL-6 mRNA transcripts in the liver compared to the HS group (IL-6 [3]): reduction | increase in plasma TNF-α levels during the experiment (TNF-α [4]): none | TNF-α plasma levels (TNF-α [4]): significant reduction | leukocyte concentration, peptide-treated vs non-treated animals (hemorrhagic shock): No significant difference | leukocytes, minimum during trauma-hemorrhage (hemorrhagic shock): 42.0±8.7% | arterial hepatic blood flow during the shock period (hemorrhagic shock; 5 mg/kg i.v.): 21.3±9.1% | ICAM-1 transcript levels in the liver (ICAM-1): did not affect

LQGV [synthetic tetrapeptide, part of the primary structure of loop two of the β-subunit of hCG]
TNF-α transcripts in the liver compared to non-treated HS (TNF-α [1]): significant reduction | IL-6 plasma levels compared to the non-treated hemorrhagic shock group (IL-6 [2]): significant reduction | IL-6 mRNA transcripts in the liver compared to the HS group (IL-6 [3]): significant reduction | increase in plasma TNF-α levels during the experiment (TNF-α [4]): none | TNF-α plasma levels (TNF-α [4]): significant reduction | leukocyte concentration, peptide-treated vs non-treated animals (hemorrhagic shock): No significant difference | leukocytes, minimum during trauma-hemorrhage (hemorrhagic shock): 38.2±7.4% | concentrations of circulating macrophages and granulocytes compared to the non-treated animals (hemorrhagic shock): decreased | blood levels of circulating macrophages and granulocytes (hemorrhagic shock; 5 mg/kg i.v.): 3,846±0.636 10^9/1 | concentrations of circulating macrophages and granulocytes compared with the corresponding experimental group (hemorrhagic shock; 5 mg/kg i.v.): significantly lower | decrease of circulating macrophages and granulocytes compared with concentrations after trauma-hemorrhage (hemorrhagic shock; 5 mg/kg i.v.): 39.2% | arterial hepatic blood flow during the shock period (hemorrhagic shock; 5 mg/kg i.v.): 21.2±8.6% | ICAM-1 transcript levels in the liver (ICAM-1): did not affect
